# Measured values published in US10953003B2, “Methods for treating cancer” (X4 Pharmaceuticals, Inc., priority 2015, dated 2021).
# What was measured:
# [1] = Phase 1 and 2a trials; cited from earlier work
# [2] = system: 786-0 RCC xenografts; assay: Murine 786-0 RCC xenograft model; format: in vivo, mice; settings: for effects on tumor growth / MDSC infiltration of tumors: 786-0 xenografts; for effects on tumor growth: nude/beige mice, tumors measured on day 7, FIG. 1A; for MDSC infiltration of tumors: CD11b+ GR-1+ cells, FIGS. 5A, 5C
# Procedure: (§1) With each of the human cell lines, 1×10^7 tumor cells were implanted subcutaneously in the flanks of 36 nude/beige mice and tumors allowed to grow to roughly 7 mm in diameter. […] Therefore, on day 7, the mice were sacrificed and the tumors were measured and immediately excised and divided into three parts. One part of each tumor was paraffin-embedded for dual color immunofluorescence. Another part was mechanically disaggregated and treated with collagenase/DNAse to generate a single cell suspension for flow cytometry. The third part was frozen for future pharmacokinetic analysis. Microscope slides were made from the paraffin-embedded tumor tissue, which were stained with antibodies against CD11b, Gr-1, and FAP. The number of infiltrating CD11b+/Gr-1+ MDSC and FAP+ fibroblasts present in the tumor tissue was then determined by immunofluorescence (IF) as previously described (1).
# (§2) The disaggregated tumor specimens were analyzed for CD11b+/Gr-1+ MDSC and FAP+ fibroblasts by flow cytometry. The fraction of both populations expressing CXCR4 were also determined. At the time the mice were sacrificed, the spleens were removed and cut in half. One part was disaggregated into single cell suspensions and analyzed by flow cytometry as above for MDSC. The second half was frozen for future analyses, such as PK analysis. Finally, a bone marrow (BM) sample was generated by extruding marrow from an excised femur with a syringe filled with saline and analyzed by flow cytometry for MDSC.
# [3] = system: A498 RCC xenografts; assay: Murine A498 RCC xenograft model; format: in vivo, mice; settings: for MDSC infiltration of tumors: CD11b+ GR-1+ cells, FIGS. 5B, 5D; for effects on tumor growth: nude/beige mice, tumors measured on day 7, FIG. 1B
# Procedure: as §1, §2
# [4] = system: 786 cells; assay: 786 cells treated in vitro for 24 hours, normoxic and hypoxic (1% O2); format: cell-based, human; settings: 786 hypoxic cells in vitro
# Description: FIG. 14B illustrates mir-30a and mir-30c microRNA and (FIG. 14C) total HIF-2α, RNA expression from the same cells from FIG. 14A.
# [5] = system: A375 cells; assay: A375 cells with or without constitutively active Stat3 construct, treated 24 h; format: cell-based; settings: A375 cells +/- constitutively active Stat3, 24 h, normoxic or hypoxic; FIG. 15
# Description: FIG. 15A illustrates Western blot results from lysates of A375 cells or A375 cells transfected with a constitutively active Stat3 construct. […] Without wishing to be bound by theory, it is believed that Stat3 is important in promoting CXCL-12 mediated invasion of tumors.
# [6] = cited from earlier work
# [7] = oral axitinib; see current product label; cited from earlier work
# [8] = over the range pH 1.1 to pH 7.8; cited from earlier work
# [9] = system: renal cell carcinoma (RCC) xenografts; settings: cited from earlier work
Compound,pharmacodynamic activity: circulating white blood cells (WBCs) [1],volume of distribution (VL) [1],effects on tumor growth [2],MDSC infiltration of tumors [2],"level of HIF-2α ([2]; 786 xenograft tumors, Western blots, 8 days of treatment, FIGS. 11, 13)",MDSC infiltration of tumors [3],effects on tumor growth [3],mir-30a and mir-30c microRNA ([4]; FIG. 14B),"HIF-2α ([4]; FIGS. 14A, 14C)",suppression of HIF-2α and induction of mir-30a and 30c [5],"micro-RNAs mir-30a and mir-30c expression ([2]; 786-0 xenograft tumor, after 8 days of treatment, FIG. 12)",pKa [6],"absorption, effect of food [7]",solubility in aqueous media [8],development of sunitinib resistance ([9]; MI-319 given concurrently with sunitinib),"infiltration of RCC xenografts with CD11b+/Gr-1+ MDSC ([9]; earlier work by some of the inventors, MI-319 given concurrently with sunitinib)",HIF-2 expression ([9]; earlier work of the inventors)
NCCCCN(Cc1nc2ccccc2[nH]1)[C@H]1CCCc2cccnc21 [X4P-001],dose- and concentration-related changes,high,modest,significantly less MDSC infiltration,reduction in the level of HIF-2α relative to that caused by axitinib treatment,significantly less MDSC infiltration,modest,mir-30a and mir-30c induction,HIF-2α reduction,dependent on Stat3 expression,,,,,,,
"CNC(=O)c1ccccc1Sc1ccc2c(/C=C/c3ccccn3)n[nH]c2c1 [axitinib, N-methyl-2-[3((E)-2-pyridin-2-yl-vinyl)-1H-indazol-6-ylsulfanyl]-benzamide]",,,no,extensive MDSC infiltration,,extensive MDSC infiltration,no,,,,suppressed,4.8,not altered by food,> 0.2 µg/mL,,,
MI-319,,,,,,,,,,,,,,,prevented,prevented,suppresses
